# Reference: patent EP4729061A1, “USE OF AKT INHIBITOR IN PREPARATION OF DRUG FOR PREVENTING OR TREATING BREAST CANCER” (Nanjing Chia Tai Tianqing Pharmaceutical Co., Ltd., priority 2023, dated 2024)
# Read-outs that look alike come from different tables or passages of the source.
# Experiments:
# [1] = test system: MCF-7 human breast cancer subcutaneous xenograft model; experiment: Tumor inhibition in subcutaneous xenograft model; type: in vivo, female BALB/c nude mice; conditions: the compound of Formula (A) 25 mg/kg p.o. QD, Fulvestrant 5 mg/mouse s.c. QW; for Body weight Post 28 Days of Treatment: mean ± standard error; for Body weight Post 28 Days of Treatment / Tumor Volume 28 Days After Administration: n=12, x 4 weeks; for Tumor Volume 28 Days After Administration: tumor volume at grouping 204 ± 6, P <0.001 vs control; for T/C: relative tumor volume increase ratio; for T/C / TGI: day 28; for TGI: tumor growth inhibition rate
# Text: The purpose of this study is to evaluate the therapeutic efficacy of the compound of Formula (A) in combination with fulvestrant in the MCF-7 human breast cancer subcutaneous xenograft model in female BALB/c nude mice.
# BALB/c nude mice, 6-8 weeks old, female, weighing 18-20 g, were purchased from Beijing Anikeeper Biotech Co., Ltd.. The feeding environment was SPF-grade, the temperature is (23±3)°C and the humidity is 40-70%.
# Solvent for the compound of Formula (A): 1,2-Propanediol (PG) : 50% Solutol HS-15 : 0.5% Hydroxypropyl Methylcellulose (HPMC) = 2 : 1 : 7.
# Compound preparation methods
# MCF-7 tumor cells were cultured in DMEM medium containing inactivated 15% fetal bovine serum, 100 U/mL penicillin, and 100 µg/mL streptomycin in an incubator at 37°C with 5% CO2. Tumor cells in the logarithmic growth phase were used for in vivo tumor inoculation.
# One day before the inoculation of MCF-7 tumor cells, the mice were subcutaneously implanted with an estrogen tablet (0.5 mg, 90-day release period) on the left side. MCF-7 tumor cells resuspended in serum-free DMEM medium were inoculated subcutaneously into the right costal region of the experimental animals at a density of 1.5 × 10^7 cells (0.2 mL + Matrigel), with a total of 72 animals inoculated. When the tumors grew to approximately 204 mm^3, 48 animals with relatively uniform tumor volumes were selected for grouping and administration, divided into 4 groups, and administered according to the dosing schedule. Table 8. Compounds administration schedule
# Tumor volume was measured twice a week using a vernier caliper. The long diameter and short diameter of the tumor were measured, and the volume was calculated using the formula: Volume = 0.5×long diameter×short diameter^2.
# While measuring the tumor volume, the body weight of the mice was weighed. The relationship between the changes in the mice's body weight and the administration time was recorded. Meanwhile, the survival status and health conditions of the mice were observed, such as their general states including activity and food intake during the administration period.
# Tumor Growth Inhibition Rate(TGI,%) = (1−T/C) × 100 [formula]
# Statistical analysis of tumor volume between groups was performed using the statistical software SPSS 16.0 and One-Way ANOVA test. A p-value < 0.05 was considered statistically significant.
# [2] = Plasma pharmacokinetics in the xenograft mice on day 28 of treatment; type: in vivo, female BALB/c nude mice; conditions: for AUC(0-inf) / AUC(0-t) / Cmax / Tmax / half-life / MRT inf: female, BALB/c nude; for MRT inf: read-out: MRTInf_obs
# Text: The purpose of this study was to evaluate the therapeutic efficacy of the compound of Formula (A) in combination with fulvestrant in the MCF-7 human breast cancer subcutaneous xenograft model in female BALB/c nude mice.
# On the 28th day of treatment for the mice in Experiment 2, animal plasma was continuously collected for PK detection, with a total of 112 plasma samples and 16 tumor samples. PK sample sampling protocol
# [3] = sc, analyte: fulvestrant in plasma, 5 mg/mouse s.c. alone (G3) or + the compound of Formula (A) 25 mg/kg (G4)
# [4] = po, analyte: the compound of Formula (A) in plasma, 25 mg/kg p.o. alone (G2) or + Fulvestrant 5 mg/mouse (G4)
"AUC%Extrap_obs ([2]; analyte: fulvestrant in plasma, 5 mg/mouse s.c. alone (G3) or + the compound of Formula (A) 25 mg/kg (G4))","AUC(0-inf) [2, 3]","AUC(0-t) [2, 3]","Cmax [2, 3]","Tmax [2, 3]","half-life [2, 3]","MRT inf [2, 3]",SMILES,Body weight Post 28 Days of Treatment [1],Tumor Volume 28 Days After Administration [1],T/C [1],TGI [1],"AUC%Extrap_obs ([2]; analyte: the compound of Formula (A) in plasma, 25 mg/kg p.o. alone (G2) or + Fulvestrant 5 mg/mouse (G4))","AUC(0-inf) [2, 4]","AUC(0-t) [2, 4]","Cmax [2, 4]","Tmax [2, 4]","half-life [2, 4]","MRT inf [2, 4]"
12.6%,6610 ng·h/mL,5780 ng·h/mL,268 ng/mL,0.375 h,23.6 h,37.7 h,"C[C@]12CC[C@@H]3c4ccc(O)cc4C[C@@H](CCCCCCCCC[S+]([O-])CCCC(F)(F)C(F)(F)F)[C@H]3[C@@H]1CC[C@@H]2O (stereo partly shown) [Fulvestrant, reference compound]",25.9 ± 0.3 g,546 ± 54 mm^3,46.9%,53.1%,–,–,–,–,–,–,–
–,–,–,–,–,–,–,"CC(C)NC[C@@H](C(=O)N1CCN(c2ncnc3c2[C@H](C)CC(=O)N3)[C@H]2C[C@H]21)c1ccc(Cl)cc1 [The compound of Formula (A), (R)-4-((1S,6R)-5-((S)-2-(4-chlorophenyl)-3-(isopropylamino)propanoyl)-2,5-diazabicyclo[4.1.0]heptan-2-yl)-5-methyl-5,8-dihydropyrido[2,3-d]pyrimidin-7(6H)-one]",23.8 ± 0.5 g,684 ± 65 mm^3,58.4%,41.6%,1.48%,18800 ng·h/mL,18500 ng·h/mL,1340 ng/mL,2.75 h,7.93 h,10.5 h
